Assay: Serum levels of radioactivity after administration of 14C-CDPC (liposomal suspension vs aqueous solution) to rats
Details: rat, in vivo, 200 mg/kg
Description: Surprising results which are obtained orally administering carried-by-liposomes CDPC instead of utilizing hitherto known pharmaceutical compositions for oral administration are confirmed by data obtained by carrying out tests hereinbelow described. During the tests as pharmaceutical composition containing carried-by-liposomes CDPC, CDPC carried by means of a liposome having purified phosphatidylcholine from soybean as hydrophobic phase was utilized; said pharmaceutical composition will be called hereinafter Lip. CDPC for the sake of brevity. Moreover, during the hereinbelow describ ed tests, a marked CDPC was utilized having an atom of ^14C introduced into the methyl group of the cholinic side of the molecule. The radioactivity resulted to be about 0.1 µ Curie/mg pure CDPC.
The suspension of Lip. CDPC containing ^14C-CDPC, which was obtained as described in Example No. 1, and a ' reference aqueous solution of ^14C-CDPC were administered by gavage to rats of average weight of 200 g at the doses of 200 mg/Kg (referred to pure CDPC).
Blood abstractions were carried out at various intervals of time and, 24 hours after the start of test, the animals were sacrificed. Amounts of absorbed active ingredient were calculated from radioactivity measures on serum; said amounts, as reported in following Tables (1 - 2), were higher on the average in tests carried out employing Lip. CDPC in comparison with controls with pure CDPC in aqueous solution. It is apparent from the analysis of Tables that, in the described experimental conditions, there is a valuable absorption of CDPC after oral administration. The amount of said absorption and pertinent hematic concentrations are remarkably higher when Lip. CDPC, which is object of the present invention, is used: for example at the 6th hour the serum concentration of CDPC for Lip. CDPC was much higher than concentration found for CDPC administered in aqueous solution.

C[N+](C)(C)CCOP(=O)(O)OP(=O)([O-])OC[C@H]1O[C@@H](n2ccc(N)nc2=O)[C@H](O)[C@@H]1O [CDPC, cytidine diphosphate choline ester]
Serum concentration (0 min): 0 CPM x 10^-3 | Serum concentration (60 min): 0.3 CPM x 10^-3 | Serum concentration (120 min): 1 CPM x 10^-3 | Serum concentration (300 min): 2.6 CPM x 10^-3 | Serum concentration (600 min): 4 CPM x 10^-3 | Serum concentration (900 min): 4 CPM x 10^-3

— patent EP0114577A1, “New pharmaceutical composition” (MAGIS FARMACEUTICI S.p.A., priority 1983, dated 1984)
